# Results reported in patent publication US20220365069A1, “ATP-BASED CELL SORTING AND HYPERPROLIFERATIVE CANCER STEM CELLS” (LUNELLA BIOTECH, INC., priority 2019, published 2022).
# How the values were obtained:
# [1] = tested on: ATP-high MCF7 cells; test: 3D-mammosphere assay, drug sensitivity of ATP-high MCF7 sub-population; type: cell-based, human
# Text: (§1) MCF7 cells in the ATP-high subpopulation show a multi-drug resistance phenotype. The 3D-mammosphere assay was used to explore the differential sensitivity of ATP-high and ATP-low MCF7 cell sub-populations to four different classes of drugs, using as a functional readout of drug-resistance. The drug classes include Tamoxifen, doxycycline, DPI, and Palbociclib.
# (§2) Flow Cytometry after Vital Staining with ATP-Red 1: Human breast cancer cell lines were first grown either as a 2D-monolayer or as 3D-spheroids. Then the cells were collected and dissociated into a single-cell suspension, prior to analysis or sorting by flow-cytometry with a SONY SH800 Cell Sorter. Briefly, ATP-high and ATP-low sub-populations of cells were isolated after vital staining with the probe ATP-Red 1. The ATP-high and ATP-low cell sub-populations were selected by gating, within the ATP-Red 1 signal. Unless otherwise stated, cells with the lowest (bottom 5% or 10%) fluorescent signal, or the highest (top 5% or 10%) fluorescent signal, were collected as ATP-low and ATP-high, respectively. The cells outside the gates were discarded during sorting, due to the gate settings. However, such settings are often required to ensure high-purity during sorting. Data were analyzed with FlowJo 10.1 software.
# 3D Anchorage Independent Growth Assay: A single cell suspension was prepared using enzymatic (lx Trypsin-EDTA, Sigma Aldrich, cat. #T3924), and manual disaggregation (25 gauge needle). Five thousand cells were plated with in mammosphere medium (DMEM-F12/B27/20ng/m1 EGF/PenStrep), under non-adherent conditions, in six wells plates coated with 2-hydroxyethylmethacrylate (poly-HEMA, Sigma, cat. #P3932). Cells were grown for 5 days and maintained in a humidified incubator at 37° C. at an atmospheric pressure in 5% (v/v) carbon dioxide/air. After 5 days, 3D spheroids with a diameter greater than 50 μm were counted using a microscope, fitted with a graticule eye-piece, and the percentage of cells which formed spheroids was calculated and normalized to one (1=100% MFE; mammosphere forming efficiency). […]
# [2] = tested on: ATP-low MCF7 cells; test: 3D-mammosphere assay, drug sensitivity of ATP-low MCF7 sub-population; type: cell-based, human
# Text: as §1, §2
# 3D Anchorage Independent Growth Assay: A single cell suspension was prepared using enzymatic (lx Trypsin-EDTA, Sigma Aldrich, cat. #T3924), and manual disaggregation (25 gauge needle). Five thousand cells were plated with in mammosphere medium (DMEM-F12/B27/20ng/m1 EGF/PenStrep), under non-adherent conditions, in six wells plates coated with 2-hydroxyethylmethacrylate (poly-HEMA, Sigma, cat. #P3932). Cells were grown for 5 days and maintained in a humidified incubator at 37° C. at an atmospheric pressure in 5% (v/v) carbon dioxide/air. After 5 days, 3D spheroids with a diameter greater than 50 μm were counted using a microscope, fitted with a graticule eye-piece, and the percentage of cells which formed spheroids was calculated and normalized to one (1=100% MFE; mammosphere forming efficiency). Mammosphere assays were performed in triplicate and repeated three times independently.
structure (smiles),measurement,setting,value
"c1ccc2c(c1)[I+]c1ccccc1-2 [DPI, diphenyleneiodonium]",reduction of 3D-mammosphere formation,"[1]; ATP-high cells, 100 nM",~55%
same,reduction of 3D-mammosphere formation,"[2]; ATP-low cells, 100 nM",> 90%
CC(=O)c1c(C)c2cnc(Nc3ccc(N4CCNCC4)cn3)nc2n(C2CCCC2)c1=O [Palbociclib],reduction of 3D spheroid formation,"[1]; ATP-high cells, 12.5 nM",-50%
same,reduction of 3D-mammosphere formation,"[2]; ATP-low cells, 12.5 nM",~75%
CC/C(=C(\c1ccccc1)c1ccc(OCCN(C)C)cc1)c1ccccc1 [Tamoxifen],"3D-mammosphere formation, of the vehicle-treated control levels","[1]; ATP-high MCF7 cells (top 5%), 5 μM",> 80%
same,reduction of 3D-mammosphere formation,"[2]; ATP-low MCF7 cells (bottom 5%), 1 μM",~40%
same,reduction of 3D-mammosphere formation,"[2]; ATP-low MCF7 cells (bottom 5%), 5 μM",> 90%
